In patent US6083973A, “Methods for inhibiting mucin secretion using RAR α selective antagonists” (Syntex (U.S.A.) Inc., priority 1999, dated 2000):

Legend:
RXR receptors = conditions: cited from earlier work
MUC2 [1] = assay: MUC2 gene transactivation in NHBE cells, RT-PCR; format: cell-based, human; conditions: for MUC2 gene induction: 1×10^-7 M, Example 1; for MUC2 gene expression, compound alone: Example 3, antagonist 1×10^-6 M or agonist 1×10^-7 M
Procedure: (§1) Transactivation of mucin genes in normal primary human bronchial epithelial cells (NHBE) was performed as described by Gray et al. Am. J. Respir. Biol., 14:104-112 (1996). Primary human airway epithelial cells were cultured on porous Transwell membranes (Corning/Costar) in defined media in the absence of all-trans retinoic acid (ATRA) for 7 days. After seven days, fresh media±ATRA or selective retinoid, was added to the basal culture compartment to create an air-liquid interface (ALI). ATRA and/or selective retinoids were used at a concentration or 1×10^-7 M. The selective retinoids used were: Compound X (RARα selective agonist), RXR agonist (SRI 11217) and anti-AP1 retinoid (SRI 11302). After seven additional days of culture the media was harvested for analysis of secreted mucin gene product using specific ELISA as previously described (Gray et al). The cell layer was lysed using a guanidinium-based buffer (TRIZOL/Sigma) for RNA extraction and analysis. Amplification of MUC2 and MUC5AC RNA was performed by standard RT-PCR using appropriate selective primer and mimics pairs (Guzman et al., Am. J. Physiol. 271 (Lung Cell Mol Physiol.15): L1023-L1028 (1996) and PCR products were detected in ethedium bromide stained agarose gels.
(§2) Transactivation of mucin genes in NHBE was performed as described above with the exception that media was supplemented with RAR alpha (RARα), beta (RARβ), or gamma (RARγ)-selective retinoids on days 7 through day 14. The RAR alpha (RARα), beta (RARβ), or gamma (RARγ)-selective retinoids were compounds X, Y and CD-437 respectively.
(§3) Transactivation of mucin genes in NHBE was performed as described above. On days 7 through day 14 cells were cultured with 1×10^-6 M RARα antagonist, Compound Z, alone or in combination with 1×10^-7 M ATRA or RARα selective agonist, Compound X. The effects on mucin gene transactivation and expression were determined by RT-PCR and ELISA as described above. RARα selective antagonist, Compound Z, had no effect on MUC2 or MUC5AC gene expression.

[2] = tested on: primary human bronchial epithelium; assay: Mucin protein secretion from NHBE cells, ELISA; format: cell-based; conditions: for mucin secretion: 1×10^-7 M, FIG. 1(b)
Procedure: as §1
Corresponding mucin protein secretion data are shown in FIG. 1(b) as ELISA data representing results from separate samples run in triplicate. Data presented as mean±sem. The mucin protein secretion data were consistent with gene induction results.
as §3

MUC5AC [3] = assay: MUC5AC gene transactivation in NHBE cells, RT-PCR; format: cell-based, human; conditions: for MUC5AC gene induction: 1×10^-7 M, Example 1; for MUC5AC gene expression, compound alone: Example 3, antagonist 1×10^-6 M or agonist 1×10^-7 M
Procedure: as §1, §2, §3

[4] = tested on: goblet cell hyperplasia in rats; assay: LPS-induced goblet cell hyperplasia, morphometric analysis; format: in vivo, rat; conditions: ATRA 2 mg/kg ip once daily
Procedure: (§4) All-trans retinoic acid (ATRA) was evaluated for its effects on mucous hypersecretion in the rat model of endotoxin/lipopolysacharide (LPS)-induced lung inflammation (Steiger et al. J. Am. Respir. Cell Mol. Biol., 12:307-314 (1995)). Animals were divided into treatment groups of approximately six. Lung inflammation was induced in male Long Evans rats by repeated instillation of LPS (LPS derived from Pseudomonas aeriginos; Sigma Chemical) 400 μg/Kg/dose/day for three days. ATRA was dissolved in DMSO (20 mg/ml) and stored at -20 C. Fresh working stocks were prepared fresh daily by dilution in PBS to a final concentration of 2 mg/ml. Animals treated with ATRA (2 mg/kg ip) were dosed once daily by intraperitoneal injection, starting 24 hours prior to the first LPS challenge. Two control groups were included in the study, treatment with vehicle (DMSO/PBS) followed by LPS and treatment with ATRA alone. Animals were sacrificed 24 hours after the last LPS challenge by exsanguination under deep anesthesia.
After lavage the lungs were perfused with 10% neutral buffered formalin by intratracheal instillation at a constant rate (5 ml at 1 ml/min). The left lobe was excised and immersed in fixative for 24 hours prior to processing. Standard methods were used to prepare 5 μm paraffin sections. […]

[5] = tested on: RAR subtypes (α, β, and γ); conditions: cited from earlier work
[6] = tested on: LPS-induced mucin hypersecretion in rats; assay: Mucous hypersecretion in rat model of LPS-induced lung inflammation; format: in vivo; conditions: for mucous hypersecretion in rats: 10 mg/kg daily starting 72 hours prior to LPS challenge
Procedure: as §4
The lungs were lavaged with phosphate buffered saline (2×5 ml) to wash out mucous layer. The lavage fluid (BAL) was centrifuged for 10 min at 500×g and the cell-free supernate was frozen and stored -20° C. until analyzed for secreted mucin by Alcian-blue/PAS dot blot assay to determine relative contribution of neutral and acidic mucins. Standard curves were generated using bovine intestinal mucins (Sigma) TYPE 1 (Alc. blue/acidic mucins) and TYPE II (PAS+/neutral mucin). Each sample was assayed in triplicate and data presented as […] total mucin. (FIG. 4b)
The effect of RARα selective antagonists Ia and Ib on mucous hypersecretion in the rat and mouse models of LPS-induced lung inflammation was evaluated according to the procedure of Example 4. Animals were treated with compound (10 mg/kg) or vehicle daily starting 72 hours prior to LPS challenge.

[7] = tested on: mucin gene expression in human epithelial cells; assay: Mucin gene expression (MUC2 and MUC5AC) in human epithelial cells; format: cell-based
Procedure: as §1, §3

NIH-292 cells = assay: LPS-induced mucin gene expression in NIH-292 cells, real time RT-PCR; format: cell-based, human; conditions: added 24 hours prior to 10 μg/ml LPS
Procedure: (§5) An in vitro assay was established to screen retinoid-based compounds for their effects on LPS-induced mucin gene expression using a continuous human lung epithelial cell line, NIH-292. NIH-292 cells were cultured in standard T-75 tissue culture flasks in DMEM/F12 media containing 10% fetal bovine serum (FBS). Upon confluence the media was changed to defined medium Optimem (Sigma) supplemented with 1% FBS 24 hours prior to challenge with 10 μg/ml LPS (P. aeriginos, Sigma Chemical). RAR selective antagonist, Compound Z, was added 24 hours prior to LPS challenge. ATRA and specific retinoids were prepared as DMSO stocks. Cells were harvested 6 or 24 hours after LPS challenge using a guanidinium-basedbuffer (TRIZOL/Sigma) for RNA extraction and analysis. Amplification of β-actin, MUC1, MUC2 and MUC5AC specific RNA was performed by using an automated fluorescent detection method for quantitation of real time RT-PCR (TAQMAN, Applied Biosystems/Perkin Elmer). Standard curves were generated for each of the relevant mucin RNAs using control plasmid. Analysis was performed in triplicate from duplicate samples.

MUC5AC [8] = assay: LPS-stimulated MUC5AC mRNA transcription, dose response; format: cell-based; conditions: Homo sapiens, normalized to glyceraldehyde phosphate 3-dehydrogenase, read-out: inhibition of MUC5AC gene transcription IC50
Procedure: as §5
Cells were stimulated with LPS in the presence or absence of Ia. MUC5AC specific mRNA was measured and is graphed normalized relative to glyceraldehyde phosphate 3-dehydrogenase control.

[9] = tested on: LPS-induced mucous hypersecretion in mice; assay: Mucous hypersecretion in mouse model of LPS-induced lung inflammation; format: in vivo; conditions: 10 mg/kg daily starting 72 hours prior to LPS challenge
Procedure: as §4, with “Two control groups were included in the study, treatment with vehicle (DMSO/PBS) followed by LPS and treatment with ATRA alone. Animals were sacrificed 24 hours after the last LPS challenge by exsanguination under deep anesthesia.” left out
The lungs were lavaged with phosphate buffered saline (2×5 ml) to wash out mucous layer. The lavage fluid (BAL) was centrifuged for 10 min at 500×g and the cell-free supernate was frozen and stored -20° C. until analyzed for secreted mucin by Alcian-blue/PAS dot blot assay to determine relative contribution of neutral and acidic mucins. […]
The effect of RARα selective antagonists Ia and Ib on mucous hypersecretion in the rat and mouse models of LPS-induced lung inflammation was evaluated according to the procedure of Example 4. […]

MUC2 [10] = conditions: G. An, et al.; cited from earlier work
[11] = 1×10^-6 M antagonist with 1×10^-7 M ATRA or Compound X
[12] = even at the highest dose, 1×10^-6 M, Example 2

SMILES: CC1=C(/C=C/C(C)=C\C=C\C(C)=C\C(=O)O)C(C)(C)CCC1 [9-cis isomer of retinoic acid]
- binding to RXR receptors (RXR receptors): bind instead to the 9-cis isomer of retinoic acid

SMILES: CC1=C(/C=C/C(C)=C/C=C/C(C)=C/C(=O)O)C(C)(C)CCC1 [ATRA, All-trans retinoic acid]
- binding to RXR receptors (RXR receptors): do not bind to all-trans retinoic acid
- MUC2 gene induction (MUC2 [1]): induce both MUC2 and MUC5AC gene induction
- MUC2 gene expression, compound alone (MUC2 [1]): potent inducers
- mucin secretion [2]: increase in mucin secretion
- MUC5AC gene induction (MUC5AC [3]): induce both MUC2 and MUC5AC gene induction
- MUC5AC gene expression, compound alone (MUC5AC [3]): potent inducers
- LPS-induced goblet cell hyperplasia [4]: enhancement
- binding to the three RAR subtypes [5]: binds with approximately equal affinity to all the three RAR subtypes
- LPS-induced mucin hypersecretion in rats ([6]; ATRA 2 mg/kg ip once daily): enhancement
- mucin gene expression, specifically MUC2 and MUC5AC ([7]; retinoid agonists): transactivates mucin gene expression

SMILES: CCCCCCCOc1cc2c(cc1/C(C)=C/c1ccc(C(=O)O)cc1)C(C)(C)CCS2(=O)=O [Compound Ia]
- LPS induced mucin gene expression (NIH-292 cells): inhibit LPS induced mucin gene expression
- inhibition of ATRA- or Compound X-induced MUC2 (MUC2 [1]; [11]): completely inhibited
- MUC2 gene expression, compound alone (MUC2 [1]): no effect
- inhibition of ATRA- or Compound X-induced mucin protein secretion ([2]; 1×10^-6 M antagonist with 1×10^-7 M ATRA or Compound X, FIG. 3b): completely inhibited
- IC50 (MUC5AC [8]): < 10 nM
- inhibition of ATRA- or Compound X-induced MUC5AC (MUC5AC [3]; [11]): completely inhibited
- MUC5AC gene expression, compound alone (MUC5AC [3]): no effect
- mucous hypersecretion in rats [6]: reduced the amount of mucous hypersecretion relative to vehicle
- inhibition of retinoid induced mucin gene expression [7]: inhibited
- mucous hypersecretion in mice [9]: reduced the amount of mucous hypersecretion relative to vehicle

SMILES: CCCCCCCOc1cc2c(cc1/C(C)=C/C=C/C(C)=C/C(=O)O)C(C)(C)CCS2(=O)=O [Compound Ib]
- mucous hypersecretion in rats [6]: reduced the amount of mucous hypersecretion relative to vehicle
- inhibition of retinoid induced mucin gene expression [7]: inhibited
- mucous hypersecretion in mice [9]: reduced the amount of mucous hypersecretion relative to vehicle

SMILES: CC1(C)CCC(C)(C)c2cc(C(=O)Nc3ccc(C(=O)O)cc3)ccc21 [Compound X]
- MUC2 gene induction (MUC2 [1]): induce both MUC2 and MUC5AC gene induction
- MUC2 gene activation (MUC2 [1]; 1×10^-9 M, Example 2): most potent inducer
- MUC2 gene expression, compound alone (MUC2 [1]): potent inducers
- Induction of MUC2 (MUC2 [1]; [12]): minimal
- mucin secretion [2]: increase in mucin secretion
- MUC5AC gene induction (MUC5AC [3]): induce both MUC2 and MUC5AC gene induction
- MUC5AC gene activation (MUC5AC [3]; 1×10^-9 M, Example 2): most potent inducer
- MUC5AC gene expression, compound alone (MUC5AC [3]): potent inducers
- Induction of MUC5AC (MUC5AC [3]; [12]): minimal

SMILES: CC(C)=C(c1ccc(C(=O)O)cc1)c1ccc2c(c1)C(C)(C)CCC2(C)C [SRI 11217, 4-[1-(5,6,7,8-tetrahydro-5,5,8,8,-tetramethyl-2-naphthalenyl)-2-methylpropenyl]-benzoic acid]
- MUC2 gene induction (MUC2 [1]): no effect on induction of either gene
- MUC5AC gene induction (MUC5AC [3]): no effect on induction of either gene

SMILES: CC1=C(/C=C/C(C)=C/C=C/C(C)=C/CO)C(C)(C)CCC1 [retinol]
- expression of the MUC2 gene (MUC2 [10]): down-regulated
